Assay results reported in patent publication US20240197760A1, “ACTIVATORS OF INTEGRATED STRESS RESPONSE PATHWAY FOR PROTECTION AGAINST FERROPTOSIS” (Burke Neurological Institute, priority 2021, published 2024).

Tests used:
primary neurons = experiment: High throughput RNA sequencing of primary neurons; type: cell-based, mouse
Protocol: Primary cortical neurons were treated with 2-DG (1 mM and 10 mM) for 6 h from three independent cultures and RNA was isolated from each sample using a NucleoSpin RNA II Kit (Clontech, Catalog number-740955-250). For each RNA sample, RNA quality was initially quantified using the RNA Integrity Number (RIN) on an Agilent Bioanalyzer (Agilent Genomics). RNA-sequencing was carried out for the RNAs with by the UCLA Neuroscience Genomics Core. In brief, cDNA was generated using Ovation® RNA-Seq System V2 (NuGEN) followed by the library preparation using Illumina's TruSeq Stranded RNA (100 ng)+RiboZero Gold. The libraries were pooled and sequenced to generate 75 bp paired end reads on HiSeqTM4000 system (Illumina). Minimum of […] reads were obtained. Reads were aligned to the mouse mm10 reference genome using the STAR (ver 2.4.0) spliced read aligner (Dobin et al., 2013). Uniquely aligned read percentage was […](SD). Various quality matrix was generated to use high quality data for the analysis. Read counts for mouse […] genes were generated by HT-seq 0.6.1 (Anders et al., 2015). Genes with at least 5 read events at least half of samples were permitted into the dataset, for a total of 15,787 genes. Raw counts were normalized by trimmed mean of M values (TMM). Differentially expressed genes (DEG) were analyzed using an EdgeR bioconductor R (Robinson et al., 2010). False discovery rate less than 0.1 is used to define differentially expressed genes. Gene Set Enrichment Analysis (GSEA) was performed with gene lists sorted by directional p-Values from differential expression analysis. Raw and processed RNAseq data are deposited to Gene Expression Omnibus (GEO #).

ATF4 = ATF4 chromatin immunoprecipitation sequencing in primary neurons; type: cell-based, mouse; conditions: 10 mM, 6 h
Protocol: ChIP-seq was performed according to the ChIPmentation protocol with minor modifications. In brief, 40 million primary neurons were used for each condition. Cells were fixed in methanol free formaldehyde (1% final concentration) for 10 min at room temperature with slow rotation to allow the cross-linking of chromatin proteins and DNA. Cross-linking was stopped by incubation with 0.125 M glycine for 5 min at room temperature. The cells were washed twice with ice-cold phosphate-buffered saline (PBS) and 2 ml of cell scrapping solution was added cell were scrapped and collected in respective tubes. Tubes with cells were centrifuged at 2800 rpm for 10 min at 4° C. and supernatant was aspirated out. Cell pellets left in the tube were resuspended in 300 μl of 0.25% SDS sonication buffer (10 mM Tris-HCl [pH 8.0], 2 mM EDTA, 0.25% SDS, and protease inhibitor cocktail). The lysates were transferred to 1.5 ml TPX microtubes for sonication (Diagenode, Catalog number: 20190430) and sonicated by Biorupter sonication device (Diagenode) to shear genomic DNA into 200-600 bp fragments. The lysates were centrifuged to remove debris and were then diluted 1:1.5 in equilibration buffer (10 mM Tris-HCl [pH 8.0], 1 mM EDTA, 1.67% Triton X-100, 0.17% sodium deoxycholate, 233 mM NaCl, and protease inhibitor cocktail). […]

HEK293 cell line = conditions: cited from earlier work

With OC[C@H]1OC(O)C[C@@H](O)[C@@H]1O (stereo partly drawn) [2-DG, (4R,5S,6R)-6-(hydroxymethyl)oxane-2,4,5-triol] the “genes related to the unfolded protein response” value (primary neurons; 1 mM and 10 mM, 6 h) was “dose dependent increase”, the “cellular component enrichment analysis” value (primary neurons; 1 mM or 10 mM, 6 h) was “significant enrichment of genes related to endoplasmic reticulum” and the “gene set enrichment analysis: gene signature related to unfolded protein response (UPR)” value (primary neurons; 1 mM or 10 mM, 6 h) was “maximal upregulation”. The “plasticity gene program in RNA sequencing” value (primary neurons; 1 mM or 10 mM, 6 h) was “upregulation of a broad plasticity gene program”, the “mitochondrial gene signature in RNA sequencing” value (primary neurons; 2-DG treatment, primary neurons) was “didn't show any significant change” and the “ATF4 binding at Bdnf (ChIP-Seq)” value (ATF4) was “selective enrichment of ATF4 close to the transcription start site of Bdnf”. The “ATF4 binding to other plasticity genes (ChIP-Seq)” value (ATF4) was “enhanced binding of ATF4 to several plasticity genes” and the Bdnf gene expression (HEK293 cell line) was “inhibit the Bdnf gene expression”.
